Experimental data: BindingDB's records for patent US11518779 (Victoria Link, 2022)

Biological target: DNA (cytosine-5)-methyltransferase 1 (Homo sapiens, UniProt P26358)
Assay: DNMT1 Inhibition Assay
Experimental: The DNMT1 assays were carried to determine the IC50 with transition state analogs. The reaction (100 μL) containing 50 mM Tris-HCl pH 8.0, 100 mM KCl, 50 ug/mL BSA, 2 mM DTT, 1 μM freshly prepared [Me-3H]-SAM, 1 μM 26 bp hemimethylated DNA substrate and varying concentrations of each inhibitor ([…]), incubated at 37° C. with 100 nM DNMT1. The reaction fractions (50 μL) were taken at 2 hours. The methylated DNA was purified by using Micro Bio-spin P-30 columns (Bio-Rad). Purified samples were mixed with 10 mL of scintillation liquid (PerkinElmer), and counted for radioactivity in a Tricarb 2910 TR scintillation counter (PerkinElmer). The values obtained in the absence of DNMT1 in the reaction were used as controls. The assay data were analyzed using GraphPad Prism for IC50 calculations.

Sequence of DNA (cytosine-5)-methyltransferase 1 (P26358 whole entry): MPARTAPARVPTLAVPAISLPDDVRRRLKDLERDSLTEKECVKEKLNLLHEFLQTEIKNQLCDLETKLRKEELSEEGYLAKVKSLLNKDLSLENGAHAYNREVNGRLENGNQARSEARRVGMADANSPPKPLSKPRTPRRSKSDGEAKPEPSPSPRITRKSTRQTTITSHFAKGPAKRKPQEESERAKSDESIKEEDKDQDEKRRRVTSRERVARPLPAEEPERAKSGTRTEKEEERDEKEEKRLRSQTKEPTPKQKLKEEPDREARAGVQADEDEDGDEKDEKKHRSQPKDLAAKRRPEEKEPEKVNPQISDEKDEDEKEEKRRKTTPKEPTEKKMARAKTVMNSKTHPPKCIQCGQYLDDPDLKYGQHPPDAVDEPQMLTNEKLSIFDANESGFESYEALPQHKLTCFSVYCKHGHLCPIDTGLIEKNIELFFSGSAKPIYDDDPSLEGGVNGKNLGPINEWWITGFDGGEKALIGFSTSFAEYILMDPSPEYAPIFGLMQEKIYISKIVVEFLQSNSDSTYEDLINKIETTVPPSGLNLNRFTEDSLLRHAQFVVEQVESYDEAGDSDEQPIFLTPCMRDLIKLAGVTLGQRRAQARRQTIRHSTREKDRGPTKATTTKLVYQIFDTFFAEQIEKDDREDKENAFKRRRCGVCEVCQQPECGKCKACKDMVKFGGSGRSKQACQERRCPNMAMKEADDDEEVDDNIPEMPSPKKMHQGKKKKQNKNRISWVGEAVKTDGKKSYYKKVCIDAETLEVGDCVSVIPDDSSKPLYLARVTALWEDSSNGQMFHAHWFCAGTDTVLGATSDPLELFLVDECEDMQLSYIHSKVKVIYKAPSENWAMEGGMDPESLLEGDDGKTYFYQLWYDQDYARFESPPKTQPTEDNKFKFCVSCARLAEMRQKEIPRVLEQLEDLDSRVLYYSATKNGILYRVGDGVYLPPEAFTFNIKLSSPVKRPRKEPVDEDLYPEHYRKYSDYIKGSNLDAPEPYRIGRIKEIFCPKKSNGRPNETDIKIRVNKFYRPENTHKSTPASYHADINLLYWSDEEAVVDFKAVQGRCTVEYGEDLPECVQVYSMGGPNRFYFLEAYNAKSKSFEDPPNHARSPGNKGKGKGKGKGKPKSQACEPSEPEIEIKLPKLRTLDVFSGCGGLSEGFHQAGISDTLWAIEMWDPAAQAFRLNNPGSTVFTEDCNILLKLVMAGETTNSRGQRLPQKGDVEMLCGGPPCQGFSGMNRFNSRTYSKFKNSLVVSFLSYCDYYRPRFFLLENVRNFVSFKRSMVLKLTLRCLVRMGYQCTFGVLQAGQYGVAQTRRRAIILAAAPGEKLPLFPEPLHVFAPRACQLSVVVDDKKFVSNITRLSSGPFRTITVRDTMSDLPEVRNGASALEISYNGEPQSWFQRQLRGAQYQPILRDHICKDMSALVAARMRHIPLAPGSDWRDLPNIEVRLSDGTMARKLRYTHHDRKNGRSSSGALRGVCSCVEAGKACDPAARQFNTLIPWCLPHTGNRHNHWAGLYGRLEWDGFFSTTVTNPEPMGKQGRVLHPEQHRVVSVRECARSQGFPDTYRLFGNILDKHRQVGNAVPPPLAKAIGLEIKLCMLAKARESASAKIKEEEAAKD

SMILES | IC50 [nM]
Nc1nc(=O)n([C@H]2C[C@H](O)[C@@H](CO)O2)cc1CSCCC[C@H]1O[C@@H](n2cnc3c(N)ncnc32)[C@H](O)[C@@H]1O [US11518779, Compound 21] | 3600
Nc1nc(=O)n([C@H]2C[C@H](O)[C@@H](CO)O2)cc1CNC[C@H]1O[C@@H](n2cnc3c(N)ncnc32)[C@H](O)[C@@H]1O [US11518779, Compound 10] | 1100
